Test results taken from US20210238139A1, “MODULATORS OF TRYPTOPHAN CATABOLISM” (E-Therapeutics PLC, priority 2018, published 2021).
Read-outs that look alike come from different tables or passages of the source.

System: SK-OV-3 cells
Assay: Effect of compounds on tryptophan catabolism in SK-OV-3 cell line (inhibition of kynurenine production, LC-MS/MS)
Type: cell-based
Conditions: SK-OV-3 cell line, 24 h incubation, kynurenine in supernatant by LC-MS/MS, read-out: IC50 Ranges (ic50 values for inhibition of Kynurenine production)
Summary of the method: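 Kynurenine in supernatants quantified by LC-MS/MS after 24 h compound exposure (37 °C; top 30 μM, eight 3-fold steps, duplicate) in DMEM F-12 containing 6 mg/mL L-tryptophan. Cells pre-plated overnight in McCoy's 5A with 10% FBS. Viability checked in parallel by ATP luminescence.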

| Compound | IC50 (Homo sapiens, SK-OV-3, 24 h) [µM] | IC50 [µM] |
| --- | --- | --- |
| Cc1ccc(CN(C(=O)Nc2ccc(C#N)cc2)c2ccn(C)n2)o1 [Compound 221, 3-(4-cyanophenyl)-1-[(5-methyl-2-furyl)methyl]-1-(1-methylpyrazol-3-yl)urea] | 0.5 to 1 | – |
| Cc1ccc(CN(C(=O)Nc2ccc(C#N)cc2)c2cncn2C)o1 [Compound 231, 3-(4-cyanophenyl)-1-[(5-methyl-2-furyl)methyl]-1-(3-methylimidazol-4-yl)urea] | 1 to 5 | – |
| Cc1ccc(CN(C(=O)Nc2ccc(C#N)cc2)c2nccn2C)o1 [Compound 233, 3-(4-cyanophenyl)-1-[(5-methyl-2-furyl)methyl]-1-(1-methylimidazol-2-yl)urea] | 1 to 5 | – |
| C#Cc1ccc(NC(=O)N(Cc2ccc(C)o2)C2COC2)cc1 [Compound 236, 3-(4-ethynylphenyl)-1-[(5-methyl-2-furyl)methyl]-1-(oxetan-3-yl)urea] | 0.5 to 1 | – |
| Cc1ccc(CN(C(=O)Nc2ccc(C#N)cc2)C2CC(F)(F)C2)o1 [Compound 241, 3-(4-cyanophenyl)-1-(3,3-difluorocyclobutyl)-1-[(5-methyl-2-furyl)methyl]urea] | 0.5 to 1 | – |
| Cc1ccc(CN(C(=O)Nc2ccc(Cl)cc2)c2cncn2C)o1 [Compound 242, 3-(4-chlorophenyl)-1-[(5-methyl-2-furyl)methyl]-1-(3-methylimidazol-4-yl) urea] | – | 0.1 to 0.5 |
| O=C(Nc1ccc(Cl)cc1)N(Cc1ccc2ncsc2c1)C1CCC1 [Compound 243, 1-(1,3-benzothiazol-6-ylmethyl)-3-(4-chlorophenyl)-1-cyclobutyl-urea] | 0.1 to 0.5 | – |
| Cc1ccc(CN(C(=O)Nc2ccc(C#N)cc2)C2CCC(F)(F)C2)o1 (centres unmarked) [Compound 244, 3-(4-cyanophenyl)-1-(3,3-difluorocyclopentyl)-1-[(5-methyl-2-furyl)methyl]urea] | 0.1 to 0.5 | – |
| Cc1ccc(CN(C(=O)Nc2ccc(Cl)cc2)C2CCC(F)(F)C2)o1 (centres unmarked) [Compound 245, 3-(4-chlorophenyl)-1-(3,3-difluorocyclopentyl)-1-[(5-methyl-2-furyl)methyl]urea] | 0.1 to 0.5 | – |
| Cc1ccc(NC(=O)N(Cc2ccc(C)o2)C2CCCC2)cn1 [Compound 246, 1-cyclopentyl-1-[(5-methyl-2-furyl)methyl]-3-(6-methyl-3-pyridyl)urea] | 0.5 to 1 | – |
| Cc1ccc(CN(C(=O)Nc2ccc(Cl)cc2)C2CC(F)(F)C2)o1 [Compound 247, 3-(4-chlorophenyl)-1-(3,3-difluorocyclobutyl)-1-[(5-methyl-2-furyl)methyl]urea] | 0.1 to 0.5 | – |
| O=C(Nc1ccc(Cl)cc1)N(Cc1nc2ccccc2s1)C1CCC1 [Compound 248, 1-(1,3-benzothiazol-2-ylmethyl)-3-(4-chlorophenyl)-1-cyclobutyl-urea] | 0.1 to 0.5 | – |
| N#Cc1ccc(NC(=O)N(Cc2cc3ncccc3o2)C2CCC2)cc1 [Compound 249, 3-(4-cyanophenyl)-1-cyclobutyl-1-(furo[3,2-b]pyridin-2-ylmethyl)urea] | > 5 | – |
| O=C(Nc1ccc(Cl)cc1)N(Cc1cn2ccccc2n1)C1CCC1 [Compound 250, 3-(4-chlorophenyl)-1-cyclobutyl-1-(imidazo[1,2-a]pyridin-2-ylmethyl)urea] | 1 to 5 | – |
| COC1CC(N(Cc2ccc(C)o2)C(=O)Nc2ccc(Cl)cc2)C1 (centres unmarked) [Compound 251, 3-(4-chlorophenyl)-1-(3-methoxycyclobutyl)-1-[(5-methyl-2-furyl)methyl]urea] | 0.5 to 1 | – |
| O=C(Nc1ccc(Cl)cc1)N(Cc1cc2ncccc2o1)C1CCC1 [Compound 252, 3-(4-chlorophenyl)-1-cyclobutyl-1-(furo[3,2-b]pyridin-2-ylmethyl)urea] | > 5 | – |
| COc1ccc(NC(=O)N(Cc2ccc(C)o2)C2CCCC2)cn1 [Compound 253, 1-cyclopentyl-3-(6-methoxy-3-pyridyl)-1-[(5-methyl-2-furyl)methyl]urea] | 0.1 to 0.5 | – |
| Cc1ccc(CN(C(=O)Nc2ccc(Cl)cc2)C2CCC(C#N)C2)o1 (centres unmarked) [Compound 254, 3-(4-chlorophenyl)-1-(3-cyanocyclopentyl)-1-[(5-methyl-2-furyl)methyl]urea] | 0.5 to 1 | – |
| N#Cc1ccc(NC(=O)N(Cc2ccc3nsnc3c2)C2CCC2)cc1 [Compound 255, 1-(2,1,3-benzothiadiazol-5-ylmethyl)-3-(4-cyanophenyl)-1-cyclobutyl-urea] | 0.1 to 0.5 | – |
| C#Cc1ccc(NC(=O)N(Cc2ccc(C)o2)C2CCN(C)CC2)cc1 [Compound 258, 3-(4-ethynylphenyl)-1-[(5-methyl-2-furyl)methyl]-1-(1-methyl-4-piperidyl)urea] | > 5 | – |
| C#Cc1ccc(NC(=O)N(Cc2ccc(C)o2)C2CCOCC2)cc1 [Compound 259, 3-(4-ethynylphenyl)-1-[(5-methyl-2-furyl)methyl]-1-tetrahydropyran-4-yl-urea] | 0.1 to 0.5 | – |
| N#Cc1ccc(NC(=O)N(Cc2cccc3ncsc23)C2CCC2)cc1 [Compound 263, 1-(1,3-benzothiazol-7-ylmethyl)-3-(4-cyanophenyl)-1-cyclobutyl-urea] | 0.1 to 0.5 | – |
| CN1CCC(N(Cc2ccc3ncsc3c2)C(=O)Nc2ccc(C#N)cc2)CC1 [Compound 264, 1-(1,3-benzothiazol-6-ylmethyl)-3-(4-cyanophenyl)-1-(1-methyl-4-piperidyl) urea] | > 5 | – |
| N#Cc1ccc(NC(=O)N(Cc2ccc3ncsc3c2)C2CCOCC2)cc1 [Compound 265, 1-(1,3-benzothiazol-6-ylmethyl)-3-(4-cyanophenyl)-1-tetrahydropyran-4-yl-urea] | 1 to 5 | – |

Second part, the compound after the results:

| IC50 (Homo sapiens, SK-OV-3, 24 h) [µM] | IC50 [µM] | Compound |
| --- | --- | --- |
| 0.1 to 0.5 | – | Cc1ccc(CN(C(=O)Nc2ccc(C#N)cc2)C2CCCC2C#N)o1 (centres unmarked) [Compound 219, 1-(2-cyanocyclopentyl)-3-(4-cyanophenyl)-1-[(5-methyl-2-furyl)methyl]urea] |
| 0.1 to 0.5 | – | Cc1ccc(CN(C(=O)Nc2ccc(Cl)cc2)C2CC(F)C2)o1 (centres unmarked) [Compound 222, 3-(4-chlorophenyl)-1-(3-fluorocyclobutyl)-1-[(5-methyl-2-furyl)methyl]urea] |
| 0.1 to 0.5 | – | N#Cc1ccc(NC(=O)N(Cc2ccc3ocnc3c2)C2CCC2)cc1 [Compound 223, 1-(1,3-benzoxazol-5-ylmethyl)-3-(4-cyanophenyl)-1-cyclobutyl-urea] |
| 0.1 to 0.5 | – | Cc1ccc(CN(C(=O)Nc2ccc(C#N)cc2)C2CCC(C#N)C2)o1 (centres unmarked) [Compound 224, 1-(3-cyanocyclopentyl)-3-(4-cyanophenyl)-1-[(5-methyl-2-furyl)methyl]urea] |
| 0.1 to 0.5 | – | Cc1ccc(CN(C(=O)Nc2ccc(Cl)cc2)c2cnn(C)c2)o1 [Compound 225, 3-(4-chlorophenyl)-1-[(5-methyl-2-furyl)methyl]-1-(1-methylpyrazol-4-yl)urea] |
| 0.1 to 0.5 | – | Cc1ccc(CN(C(=O)Nc2ccc(Cl)cc2)c2ccn(C)n2)o1 [Compound 226, 3-(4-chlorophenyl)-1-[(5-methyl-2-furyl)methyl]-1-(1-methylpyrazol-3-yl)urea] |
| < 0.1 | – | Cc1ccc(CN(C(=O)Nc2ccc(Cl)cc2)C2CCCC2C#N)o1 (centres unmarked) [Compound 227, 3-(4-chlorophenyl)-1-(2-cyanocyclopentyl)-1-[(5-methyl-2-furyl)methyl]urea] |
| 0.1 to 0.5 | – | Cc1ccc(CN(C(=O)Nc2ccc(C(F)(F)F)nc2)C2CCCC2)o1 [Compound 228, 1-cyclopentyl-1-[(5-methyl-2-furyl)methyl]-3-[6-(trifluoromethyl)-3-pyridyl]urea] |
| 0.1 to 0.5 | – | N#Cc1ccc(NC(=O)N(Cc2nc3ccccc3s2)C2CCC2)cc1 [Compound 229, 1-(1,3-benzothiazol-2-ylmethyl)-3-(4-cyanophenyl)-1-cyclobutyl-urea] |
| 0.1 to 0.5 | – | Cc1ccc(CN(C(=O)Nc2ccc(C#N)cc2)c2c(C)noc2C)o1 [Compound 230, 3-(4-cyanophenyl)-1-(3,5-dimethylisoxazol-4-yl)-1-[(5-methyl-2-furyl)methyl]urea] |
| < 0.1 | – | O=C(Nc1ccc(Cl)cc1)N(Cc1ccc2ocnc2c1)C1CCC1 [Compound 232, 1-(1,3-benzoxazol-5-ylmethyl)-3-(4-chlorophenyl)-1-cyclobutyl-urea] |
| < 0.1 | – | N#Cc1ccc(NC(=O)N(Cc2cc3ccccc3o2)C2CCC2)cc1 [Compound 234, 1-(benzofuran-2-ylmethyl)-3-(4-cyanophenyl)-1-cyclobutyl-urea] |
| < 0.1 | – | Cn1ncc2ccc(CN(C(=O)Nc3ccc(Cl)cc3)C3CCC3)cc21 [Compound 235, 3-(4-chlorophenyl)-1-cyclobutyl-1-[(1-methylindazol-6-yl)methyl]urea] |
| 0.1 to 0.5 | – | O=C(Nc1ccc(Cl)cc1)N(Cc1ccc2ncoc2c1)C1CCC1 [Compound 237, 1-(1,3-benzoxazol-6-ylmethyl)-3-(4-chlorophenyl)-1-cyclobutyl-urea] |
| 0.1 to 0.5 | – | Cc1ccc(CN(C(=O)Nc2ccc(Cl)cc2)c2c(C)noc2C)o1 [Compound 238, 3-(4-chlorophenyl)-1-(3,5-dimethylisoxazol-4-yl)-1-[(5-methyl-2-furyl)methyl]urea] |
| 0.1 to 0.5 | – | O=C(Nc1ccc(Cl)cc1)N(Cc1cc2ccccn2n1)C1CCC1 [Compound 239, 3-(4-chlorophenyl)-1-cyclobutyl-1-(pyrazolo[1,5-a]pyridin-2-ylmethyl)urea] |
| < 0.1 | – | O=C(Nc1ccc(Cl)cc1)N(Cc1ccc2nsnc2c1)C1CCC1 [Compound 240, 1-(2,1,3-benzothiadiazol-5-ylmethyl)-3-(4-chlorophenyl)-1-cyclobutyl-urea] |
| < 0.1 | – | O=C(Nc1ccc(Cl)cc1)N(Cc1ccc2scnc2c1)C1CCC1 [Compound 260, 1-(1,3-benzothiazol-5-ylmethyl)-3-(4-chlorophenyl)-1-cyclobutyl-urea] |
| < 0.1 | – | N#Cc1ccc(NC(=O)N(Cc2ccc3scnc3c2)C2CCC2)cc1 [Compound 261, 1-(1,3-benzothiazol-5-ylmethyl)-3-(4-cyanophenyl)-1-cyclobutyl-urea] |
| < 0.1 | – | O=C(Nc1ccc(Cl)cc1)N(Cc1cccc2ncsc12)C1CCC1 [Compound 262, 1-(1,3-benzothiazol-7-ylmethyl)-3-(4-chlorophenyl)-1-cyclobutyl-urea] |
